Laboratory results reported in patent US20020133009A1, “Method for opening potassium channels” (priority 2001, published 2002).

Legend:
maxi-K+ channels [1] = biological target: T1, maxi-K+ channels (Bos taurus, UniProt Q28204); assay: Patch clamp whole-cell current measurements in cultured bovine trabecular meshwork (TM) cells; assay type: cell-based
T1 construct: endogenous in cells; host or cells: cultured bovine trabecular meshwork (TM) cells
Description: (§1) Patch clamp experiments of cultured human and bovine trabecular meshwork (TM) cells are performed. Nystatin in a pipette is used to obtain perforated patches. Whole-cell current measurements in the cells are performed. Voltages from −80mV to +120mV with 200-msec duration each are applied through the patch pipette, starting from a holding potential of −40mV. After each step, the voltage is returned to a holding potential of […] for 200-msec. Currents are continuously sampled at 100 Hz throughout the duration of the protocol.

maxi-K+ channels [2] = biological target: T2, maxi-K+ channels (Homo sapiens, UniProt Q12791); assay: Patch clamp whole-cell current measurements in cultured human trabecular meshwork (TM) cells; assay type: cell-based
T2 construct: endogenous in cells; host or cells: cultured human trabecular meshwork (TM) cells
T2 sequence (Q12791 whole entry): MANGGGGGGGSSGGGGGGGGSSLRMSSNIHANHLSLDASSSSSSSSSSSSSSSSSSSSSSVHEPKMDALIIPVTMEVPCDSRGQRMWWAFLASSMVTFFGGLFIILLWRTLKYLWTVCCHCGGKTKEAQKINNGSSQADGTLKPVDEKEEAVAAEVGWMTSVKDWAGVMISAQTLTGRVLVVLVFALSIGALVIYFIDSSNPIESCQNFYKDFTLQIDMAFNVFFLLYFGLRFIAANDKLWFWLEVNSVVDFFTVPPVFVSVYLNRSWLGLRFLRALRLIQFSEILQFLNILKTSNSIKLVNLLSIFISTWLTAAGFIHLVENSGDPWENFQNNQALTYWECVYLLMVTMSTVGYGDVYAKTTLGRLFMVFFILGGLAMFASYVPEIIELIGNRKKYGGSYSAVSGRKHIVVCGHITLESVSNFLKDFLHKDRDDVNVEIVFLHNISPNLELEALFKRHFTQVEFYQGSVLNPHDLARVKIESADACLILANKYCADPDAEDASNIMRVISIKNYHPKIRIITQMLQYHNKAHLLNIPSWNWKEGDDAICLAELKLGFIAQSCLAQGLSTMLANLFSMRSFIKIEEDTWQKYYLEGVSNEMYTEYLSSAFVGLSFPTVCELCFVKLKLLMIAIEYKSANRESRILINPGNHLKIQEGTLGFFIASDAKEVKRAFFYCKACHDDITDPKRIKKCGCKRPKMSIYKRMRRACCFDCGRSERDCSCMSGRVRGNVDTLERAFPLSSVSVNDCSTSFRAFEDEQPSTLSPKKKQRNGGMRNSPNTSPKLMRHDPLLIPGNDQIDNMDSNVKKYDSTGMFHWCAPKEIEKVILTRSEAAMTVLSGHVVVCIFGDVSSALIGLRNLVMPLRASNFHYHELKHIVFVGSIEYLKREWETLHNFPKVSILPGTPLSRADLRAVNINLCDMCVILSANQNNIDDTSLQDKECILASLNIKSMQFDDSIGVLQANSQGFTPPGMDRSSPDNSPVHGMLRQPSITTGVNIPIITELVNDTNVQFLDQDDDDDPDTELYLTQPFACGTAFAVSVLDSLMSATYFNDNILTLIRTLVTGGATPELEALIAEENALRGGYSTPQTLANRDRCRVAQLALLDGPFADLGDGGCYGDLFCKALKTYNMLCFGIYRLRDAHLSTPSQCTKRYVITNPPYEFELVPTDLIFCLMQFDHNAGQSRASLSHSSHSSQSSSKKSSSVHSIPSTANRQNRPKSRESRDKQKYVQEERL
Description: as §1

T1 sequence (Q28204 whole entry): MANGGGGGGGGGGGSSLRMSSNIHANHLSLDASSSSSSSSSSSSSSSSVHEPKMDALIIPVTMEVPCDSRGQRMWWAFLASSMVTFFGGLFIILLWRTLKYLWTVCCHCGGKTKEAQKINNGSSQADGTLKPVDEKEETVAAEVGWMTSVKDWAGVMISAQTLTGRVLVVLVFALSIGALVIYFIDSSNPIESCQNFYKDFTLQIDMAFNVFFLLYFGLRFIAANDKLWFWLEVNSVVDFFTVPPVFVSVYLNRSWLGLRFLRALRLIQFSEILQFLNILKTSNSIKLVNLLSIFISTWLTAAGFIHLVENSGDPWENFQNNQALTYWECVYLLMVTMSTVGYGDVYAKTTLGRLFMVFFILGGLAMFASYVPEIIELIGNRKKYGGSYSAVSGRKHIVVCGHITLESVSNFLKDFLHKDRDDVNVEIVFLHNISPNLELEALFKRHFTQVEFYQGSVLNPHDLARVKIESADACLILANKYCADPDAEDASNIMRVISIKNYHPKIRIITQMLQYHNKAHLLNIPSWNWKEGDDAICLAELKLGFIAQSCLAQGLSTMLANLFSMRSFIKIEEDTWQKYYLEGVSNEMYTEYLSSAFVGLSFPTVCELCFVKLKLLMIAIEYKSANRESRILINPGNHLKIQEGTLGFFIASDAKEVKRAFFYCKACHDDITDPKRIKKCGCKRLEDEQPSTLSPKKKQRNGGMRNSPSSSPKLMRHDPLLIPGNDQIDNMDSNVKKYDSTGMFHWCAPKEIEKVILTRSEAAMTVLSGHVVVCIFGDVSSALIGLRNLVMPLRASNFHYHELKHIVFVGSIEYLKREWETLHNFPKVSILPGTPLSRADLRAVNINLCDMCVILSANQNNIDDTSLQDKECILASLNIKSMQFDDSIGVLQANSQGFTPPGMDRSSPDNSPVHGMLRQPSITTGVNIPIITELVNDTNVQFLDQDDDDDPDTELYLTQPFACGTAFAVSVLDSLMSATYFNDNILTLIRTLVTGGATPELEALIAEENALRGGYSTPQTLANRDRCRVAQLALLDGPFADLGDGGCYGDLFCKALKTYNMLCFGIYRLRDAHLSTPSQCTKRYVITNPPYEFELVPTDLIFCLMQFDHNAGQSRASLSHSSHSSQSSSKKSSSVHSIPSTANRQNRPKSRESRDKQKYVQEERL

Molecule | overall current of the cells (maxi-K+ channels [1]; bovine TM cells incubated in either acetylcholine or endothelin) | total current, % of the control (maxi-K+ channels [1]; bovine trabecular meshwork cells incubated in acetylcholine, 10^-5 M unoprostone isopropyl, p<0.01) | maxi-K+ channel opening (maxi-K+ channels [1]; conclusion from iberiotoxin block, TM cells, species not given) | overall current of the cells (maxi-K+ channels [2]; human TM cells incubated in either acetylcholine or endothelin) | overall current (maxi-K+ channels [2]; human trabecular meshwork cells incubated in acetylcholine) | overall current (maxi-K+ channels [2]; human trabecular meshwork cells incubated in the presence of endothelin) | effect on unoprostone isopropyl-induced current (maxi-K+ channels [1]; TM cells, species not given) | total current inhibited by iberiotoxin, % of the control (maxi-K+ channels [1]; bovine trabecular meshwork cells incubated in acetylcholine, after unoprostone isopropyl stimulation)
CCCCCCCC(=O)CC[C@@H]1[C@@H](C/C=C\CCCC(=O)OC(C)C)[C@@H](O)C[C@H]1O [unoprostone isopropyl, [1R-[1α(Z),2β,3a,5a]]-7-[3,5-dihydroxy-2-(3-oxodecyl)cyclopentyl]-5-heptenoic acid isopropyl ester] | stimulated the overall current | approximately 180% | opens maxi-K+ channels | stimulated the overall current | stimulates the overall current | induces an increase in the overall current | – | –
iberiotoxin: highly specific inhibitor of maxi-K+ channels (QFTDVDCSVSKECWSVCKDLFGVDRGKCMGKKCRCYQ; UniProt P24663 1-37, looked up) [reference compound] | – | – | – | – | – | – | totally reduced | approximately 40%
